The numbers were not newly measured in patent US9629818B2, “Pharmaceutical composition of tapentadol for parenteral administration” (TORRENT PHARMACEUTICALS LTD, priority 2012, dated 2017), which cites them from elsewhere.

For series [1] the following is noted: in vivo.
For series [2] the following is noted: given orally.

A value given as a limit tells only on which side of the number the result lay.

With `CC[C@@H](c1cccc(O)c1)[C@@H](C)CN(C)C` [tapentadol, (−)-(1R,2R)-3-(3-dimethylamino-1-ethyl-2-methyl-propyl)-phenol], in series [1], the “duration of analgesic effect” value was at most 12 h. For the same molecule, the parent compound metabolized result in series [2] is “About 97%”.
